From the NIST ThermoML archive (doi:10.1016/j.jct.2015.12.029)
± gives the expanded uncertainty stated by the source.

Experiment: mn = molality of the nth substance listed, in mol/kg
Settings: 100 kPa, Liquid; for molar conductivity: Alternating current cell with electrodes; for mass density: Vibrating tube method, m1 = 0.009007

CCCCn1cc[n+](C)c1.F[B-](F)(F)F [1-butyl-3-methylimidazolium tetrafluoroborate] + CCCCO
molar conductivity (283.15 K, m1 = 7.252e-05): 0.00118 ± 1.2e-05 S·m2/mol | molar conductivity (283.15 K, m1 = 0.0001049): 0.00114 ± 1.2e-05 S·m2/mol | molar conductivity (283.15 K, m1 = 0.0001948): 0.00103 ± 1.1e-05 S·m2/mol | molar conductivity (283.15 K, m1 = 0.0002951): 0.000958 ± 1e-05 S·m2/mol | molar conductivity (283.15 K, m1 = 0.0004065): 0.000896 ± 1e-05 S·m2/mol | molar conductivity (283.15 K, m1 = 0.000564): 0.000826 ± 9e-06 S·m2/mol | molar conductivity (283.15 K, m1 = 0.000759): 0.000763 ± 9e-06 S·m2/mol | molar conductivity (283.15 K, m1 = 0.0009843): 0.000711 ± 8e-06 S·m2/mol | molar conductivity (283.15 K, m1 = 0.001432): 0.000635 ± 8e-06 S·m2/mol | molar conductivity (283.15 K, m1 = 0.001963): 0.000573 ± 7e-06 S·m2/mol | molar conductivity (283.15 K, m1 = 0.003008): 0.000498 ± 7e-06 S·m2/mol | mass density (283.15 K): 817.699 ± 0.22 kg/m3 | molar conductivity (288.15 K, m1 = 7.252e-05): 0.00135 ± 1.4e-05 S·m2/mol | molar conductivity (288.15 K, m1 = 0.0001049): 0.0013 ± 1.3e-05 S·m2/mol | molar conductivity (288.15 K, m1 = 0.0001948): 0.00118 ± 1.3e-05 S·m2/mol | molar conductivity (288.15 K, m1 = 0.0002951): 0.00109 ± 1.2e-05 S·m2/mol | molar conductivity (288.15 K, m1 = 0.0004065): 0.00102 ± 1.1e-05 S·m2/mol | molar conductivity (288.15 K, m1 = 0.000564): 0.000939 ± 1.1e-05 S·m2/mol | molar conductivity (288.15 K, m1 = 0.000759): 0.000869 ± 1e-05 S·m2/mol | molar conductivity (288.15 K, m1 = 0.0009843): 0.000808 ± 9e-06 S·m2/mol | molar conductivity (288.15 K, m1 = 0.001432): 0.000719 ± 9e-06 S·m2/mol | molar conductivity (288.15 K, m1 = 0.001963): 0.000648 ± 8e-06 S·m2/mol | molar conductivity (288.15 K, m1 = 0.003008): 0.000562 ± 7e-06 S·m2/mol | mass density (288.15 K): 813.937 ± 0.22 kg/m3 | molar conductivity (293.15 K, m1 = 7.252e-05): 0.00154 ± 1.6e-05 S·m2/mol | molar conductivity (293.15 K, m1 = 0.0001049): 0.00148 ± 1.5e-05 S·m2/mol | molar conductivity (293.15 K, m1 = 0.0001948): 0.00135 ± 1.4e-05 S·m2/mol | molar conductivity (293.15 K, m1 = 0.0002951): 0.00125 ± 1.4e-05 S·m2/mol | molar conductivity (293.15 K, m1 = 0.0004065): 0.00116 ± 1.3e-05 S·m2/mol | molar conductivity (293.15 K, m1 = 0.000564): 0.00107 ± 1.2e-05 S·m2/mol | molar conductivity (293.15 K, m1 = 0.000759): 0.000986 ± 1.1e-05 S·m2/mol | molar conductivity (293.15 K, m1 = 0.0009843): 0.000917 ± 1e-05 S·m2/mol | molar conductivity (293.15 K, m1 = 0.001432): 0.000816 ± 1e-05 S·m2/mol | molar conductivity (293.15 K, m1 = 0.001963): 0.000736 ± 9e-06 S·m2/mol | molar conductivity (293.15 K, m1 = 0.003008): 0.000639 ± 8e-06 S·m2/mol | mass density (293.15 K): 810.147 ± 0.22 kg/m3 | molar conductivity (298.15 K, m1 = 7.252e-05): 0.00177 ± 1.8e-05 S·m2/mol | molar conductivity (298.15 K, m1 = 0.0001049): 0.00169 ± 1.7e-05 S·m2/mol | molar conductivity (298.15 K, m1 = 0.0001948): 0.00154 ± 1.6e-05 S·m2/mol | molar conductivity (298.15 K, m1 = 0.0002951): 0.00142 ± 1.5e-05 S·m2/mol | molar conductivity (298.15 K, m1 = 0.0004065): 0.00132 ± 1.5e-05 S·m2/mol | molar conductivity (298.15 K, m1 = 0.000564): 0.00121 ± 1.4e-05 S·m2/mol | molar conductivity (298.15 K, m1 = 0.000759): 0.00112 ± 1.3e-05 S·m2/mol | molar conductivity (298.15 K, m1 = 0.0009843): 0.00104 ± 1.2e-05 S·m2/mol | molar conductivity (298.15 K, m1 = 0.001432): 0.000925 ± 1.1e-05 S·m2/mol | molar conductivity (298.15 K, m1 = 0.001963): 0.000834 ± 1e-05 S·m2/mol | molar conductivity (298.15 K, m1 = 0.003008): 0.00072 ± 1e-05 S·m2/mol | mass density (298.15 K): 806.337 ± 0.22 kg/m3 | molar conductivity (303.15 K, m1 = 7.252e-05): 0.00199 ± 2e-05 S·m2/mol | molar conductivity (303.15 K, m1 = 0.0001049): 0.00191 ± 2e-05 S·m2/mol | molar conductivity (303.15 K, m1 = 0.0001948): 0.00173 ± 1.9e-05 S·m2/mol | molar conductivity (303.15 K, m1 = 0.0002951): 0.00158 ± 1.7e-05 S·m2/mol | molar conductivity (303.15 K, m1 = 0.0004065): 0.00147 ± 1.6e-05 S·m2/mol | molar conductivity (303.15 K, m1 = 0.000564): 0.00135 ± 1.5e-05 S·m2/mol | molar conductivity (303.15 K, m1 = 0.000759): 0.00125 ± 1.4e-05 S·m2/mol | molar conductivity (303.15 K, m1 = 0.0009843): 0.00116 ± 1.3e-05 S·m2/mol | molar conductivity (303.15 K, m1 = 0.001432): 0.00103 ± 1.2e-05 S·m2/mol | molar conductivity (303.15 K, m1 = 0.001963): 0.00093 ± 1.1e-05 S·m2/mol | molar conductivity (303.15 K, m1 = 0.003008): 0.000807 ± 1.1e-05 S·m2/mol | mass density (303.15 K): 802.5 ± 0.22 kg/m3 | molar conductivity (308.15 K, m1 = 7.252e-05): 0.00224 ± 2.3e-05 S·m2/mol | molar conductivity (308.15 K, m1 = 0.0001049): 0.00214 ± 2.2e-05 S·m2/mol | molar conductivity (308.15 K, m1 = 0.0001948): 0.00193 ± 2.1e-05 S·m2/mol | molar conductivity (308.15 K, m1 = 0.0002951): 0.00177 ± 1.9e-05 S·m2/mol | molar conductivity (308.15 K, m1 = 0.0004065): 0.00164 ± 1.8e-05 S·m2/mol | molar conductivity (308.15 K, m1 = 0.000564): 0.00151 ± 1.7e-05 S·m2/mol | molar conductivity (308.15 K, m1 = 0.000759): 0.00139 ± 1.6e-05 S·m2/mol | molar conductivity (308.15 K, m1 = 0.0009843): 0.00129 ± 1.5e-05 S·m2/mol | molar conductivity (308.15 K, m1 = 0.001432): 0.00114 ± 1.4e-05 S·m2/mol | molar conductivity (308.15 K, m1 = 0.001963): 0.00103 ± 1.2e-05 S·m2/mol | molar conductivity (308.15 K, m1 = 0.003008): 0.000896 ± 1.2e-05 S·m2/mol | mass density (308.15 K): 798.633 ± 0.23 kg/m3 | molar conductivity (313.15 K, m1 = 7.252e-05): 0.0025 ± 2.6e-05 S·m2/mol | molar conductivity (313.15 K, m1 = 0.0001049): 0.00238 ± 2.5e-05 S·m2/mol | molar conductivity (313.15 K, m1 = 0.0001948): 0.00214 ± 2.3e-05 S·m2/mol | molar conductivity (313.15 K, m1 = 0.0002951): 0.00197 ± 2.2e-05 S·m2/mol | molar conductivity (313.15 K, m1 = 0.0004065): 0.00182 ± 2e-05 S·m2/mol | molar conductivity (313.15 K, m1 = 0.000564): 0.00168 ± 1.9e-05 S·m2/mol | molar conductivity (313.15 K, m1 = 0.000759): 0.00154 ± 1.8e-05 S·m2/mol | molar conductivity (313.15 K, m1 = 0.0009843): 0.00143 ± 1.6e-05 S·m2/mol | molar conductivity (313.15 K, m1 = 0.001432): 0.00126 ± 1.5e-05 S·m2/mol | molar conductivity (313.15 K, m1 = 0.001963): 0.00114 ± 1.3e-05 S·m2/mol | molar conductivity (313.15 K, m1 = 0.003008): 0.00099 ± 1.3e-05 S·m2/mol | mass density (313.15 K): 794.73 ± 0.23 kg/m3 | molar conductivity (318.15 K, m1 = 7.252e-05): 0.00278 ± 2.8e-05 S·m2/mol | molar conductivity (318.15 K, m1 = 0.0001049): 0.00264 ± 2.7e-05 S·m2/mol | molar conductivity (318.15 K, m1 = 0.0001948): 0.00237 ± 2.6e-05 S·m2/mol | molar conductivity (318.15 K, m1 = 0.0002951): 0.00217 ± 2.4e-05 S·m2/mol | molar conductivity (318.15 K, m1 = 0.0004065): 0.00201 ± 2.2e-05 S·m2/mol | molar conductivity (318.15 K, m1 = 0.000564): 0.00184 ± 2.1e-05 S·m2/mol | molar conductivity (318.15 K, m1 = 0.000759): 0.00169 ± 2e-05 S·m2/mol | molar conductivity (318.15 K, m1 = 0.0009843): 0.00156 ± 1.8e-05 S·m2/mol | molar conductivity (318.15 K, m1 = 0.001432): 0.00138 ± 1.7e-05 S·m2/mol | molar conductivity (318.15 K, m1 = 0.001963): 0.00125 ± 1.5e-05 S·m2/mol | molar conductivity (318.15 K, m1 = 0.003008): 0.00108 ± 1.5e-05 S·m2/mol | mass density (318.15 K): 790.785 ± 0.23 kg/m3
